Values after ≈ are worked out from the molar mass of the structure shown.
Assays:
[1] = tested on: Candida albicans (WTBF-50); experiment: Antifungal activity assay; assay type: cell-based
[2] = tested on: Cryptococcus neoformans Cn18 (WTBF-106); experiment: Antifungal activity assay; assay type: cell-based; details: MIC ratio versus P2
C. albicans = experiment: Time kill assays; assay type: cell-based, Candida albicans

SMILES: C[C@@H]1[C@H](O)[C@@H](C)/C=C/C=C/C=C/C=C/C=C/C=C/C=C/[C@H](O[C@@H]2O[C@H](C)[C@@H](O)[C@H](N)[C@@H]2O)C[C@@H]2O[C@](O)(C[C@@H](O)C[C@@H](O)[C@H](O)CC[C@@H](O)C[C@@H](O)CC(=O)O[C@H]1C)C[C@H](O)[C@H]2C(=O)O [AMB, Amphotericin B, reference compound]
- MIC ([1]; Candida albicans): 0.125 µg/mL (≈ 0.135 µM)

SMILES: CC1CNC(c2ccc3cc(-c4ccc(-c5cc6ccc(C7=NC(C)CN7)cc6[nH]5)cc4)[nH]c3c2)=N1.O=C(O)C(F)(F)F (centres unmarked) [Compound P9]
- fold more potent than P2 against Cryptococcus neoformans [2]: 6 fold

SMILES: CC(=O)O.c1cc2cc(-c3ccc(-c4ccc5cc(C6=NCCCN6)oc5c4)cc3)[nH]c2cc1C1=NCCCN1 [Compound P34]
- fungicidal activity relative to positive control (C. albicans; 2× the MIC and 4× the MIC, versus AMB at 4× the MIC): comparable to that of AMB

SMILES: CC(=O)O.c1cc2cc(-c3ccc(-c4ccn5cc(C6=NCCCN6)nc5c4)cc3)[nH]c2cc1C1=NCCCN1 [Compound P33]
- fold more potent than P35 against Candida spp. ([1]; MIC ratio versus P35): > 10 fold

SMILES: O=C(O)C(F)(F)F.c1cc2cc(-c3ccc(-c4cc5ccc(C6=NCCCN6)cc5[nH]4)cc3)[nH]c2cc1C1=NCCCN1 [Compound P10]
- time to reduce viable cells below the limit of detection (C. albicans; 2× the MIC): ≤ 8 h

Source: article PMC4554983 (Bioorganic & medicinal chemistry, 2015)
